“And” between values parts separate entries of the source, which are not always exact repeats. Equal values may be shown once. Read-outs that look alike come from different tables or passages of the source.

For data set [1], the system named is CDC1551(rv2390c′::GFP) reporter Mtb strain. As to conditions: for Normalized % induction: Fig. 2C, DMSO = 100.
The test system of another data set is Mtb-infected J774 cells. The settings on record: 10 μM, 24 hours, 5 days post-infection.
Data set [2] deals with Mtb growth in J774 macrophage-like cells. Nature of the data set: J774 infection in 96-well plates, mKO fluorescence 6 days post-infection. It counts as cell-based, Mycobacterium tuberculosis. The settings on record: for % Growth: Fig. 2D, DMSO = 100. As to the method:
For J774 infection in 96-well plates, 1.8 × 10^5 J774 cells were seeded per well in 180 μl of J774 infection media 1 day prior to infection. On the day of the assay, log-phase Mtb constitutively expressing mKO were pelleted and resuspended in 1 ml basal uptake buffer, passed 6× through a tuberculin syringe with a 25 G × 5/8″ needle, then resuspended in J774 infection media to a final OD600 = 0.2. Media was removed from 96-well plate containing the J774 cells, with 140 μl of fresh J774 infection media added back to each well. A volume of 40 μl of the Mtb suspension at OD600 = 0.2 was added to each well, followed by addition of appropriate concentration of compound or DMSO in a 20-μl final volume in J774 infection media (compound final concentration 10 μM, rifampicin final concentration 5 μM, DMSO final concentration 0.1%/well). Bacterial mKO fluorescence was read immediately after infection using a Biotek Synergy Neo2 microplate reader (bottom read monochromator, excitation 543/10 nm, emission 565/10 nm), and again 6 days post-infection. Plates were kept in humidified ziplock bags in a 37°C, 5% CO2 incubator. mKO fluorescence in DMSO-treated control samples were defined as 100% growth, and fluorescence observed in treatment conditions calculated as a percentage from that set value.

In data set [3] the test system is Mtb. As to the kind of experiment: Mtb growth assay in cholesterol medium (OD600). As to conditions: for OD600: Fig. 2G.
Source text: (§1) Bacterial growth was tracked by measuring OD600 every 3 days for 12 days. […] Bacterial growth was tracked by measurement of OD600 every 3 days over 12 days.
Data set [4] deals with WT Mtb (Erdman) in primary murine BMDMs. As to the kind of experiment: Primary murine bone marrow-derived macrophage infection, CFU. It counts as cell-based, Mycobacterium tuberculosis. As to conditions: for CFU/ml: Fig. 2E, 10 µM. The protocol:
C57BL/6J wild-type mice (Jackson Laboratories) were used for extraction of BMDMs. Cells were harvested and expanded in DMEM containing 10% FBS, 15% L-cell conditioned media, 2 mM L-glutamine, 1 mM sodium pyruvate, and penicillin/streptomycin as needed in a 37°C incubator in a 5% CO2 atmosphere. […] Macrophages were lysed with water containing 0.01% sodium dodecyl sulfate and a dilution series of the samples plated on 7H10 agar for CFU determination.

A further data set has as its system Mtb CDC1551. Nature of the data set: Intrabacterial drug accumulation assay (LC-MS). The settings on record: 24-hour exposure, 7H9 pH 7 ± 250 mM NaCl.
Data set [5] has as its system Mtb. Nature of the data set: Mtb growth assay in standard 7H9 medium (OD600). As to conditions: Fig. 2F.
Source text: as §1
The test system of the next data set is J774 cells. As to the kind of experiment: Intracellular drug accumulation assay in J774 cells (LC-MS). The settings on record: 24 hours.
In data set [6] the test system is Mtb. The arrangement: method as in PMID 26574016, PMID 27227164. As to conditions: subset of mice failing to respond; cited from earlier work.
Data set [7] deals with Mtb. More on the design: method as in PMID 26574016, PMID 27227164. As to conditions: mice do not form caseous necrotic lesions; cited from earlier work.

Regarding `COc1ncc(CN2CCN(c3nc4ccccc4o3)CC2)cn1` [JSF-4271, 2-(4-((2-methoxypyrimidin-5-yl)methyl)piperazin-1-yl)benzo[d]oxazole], the Normalized % induction is 98.3426% in data set [1] (average of 3 replicates); 93.208% and 98.8641% and 102.956% in data set [1] (individual replicates). Further, the “Ability to increase rv2390c′::GFP reporter signal in high [Cl−]” value in data set [1] (pH 7) is “lost the ability”. In addition, the “Accumulation in Mtb-infected J774 cells” value in the data set with Mtb-infected J774 cells is on record as “minimal accumulation”. In addition, the “Inhibition of Mtb growth in J774 cells” value in data set [2] (10 μM, 6 days post-infection) is “loss of the ability to inhibit Mtb growth”. In addition, the “% Growth” value in data set [2] (average of 4 replicates) was 107.949%; in [2] (individual replicates), 101.522% and 116.46% and 111.935% and 101.878%. The “Inhibition of Mtb growth in cholesterol media” value in the data set on Mtb [3] (10 μM, OD600 over 12 days) is on record as “no longer inhibited Mtb growth”. The OD600 was 0.1 in the data set with Mtb [3] (day 3, average); 0.1 in the data set on Mtb [3] (day 3, individual replicates); 0.28 in the data set with Mtb [3] (day 6, average); 0.3 (2×) and 0.24 with Mtb [3] (day 6, individual replicates); 0.4467 in the data set on Mtb [3] (day 9, average); 0.46 (2×) and 0.42 in the data set on Mtb [3] (day 9, individual replicates). The OD600 was 0.52 in the data set with Mtb [3] (day 12, average); 0.52 and 0.5 and 0.54 in the data set with Mtb [3] (day 12, individual replicates); 0.2 in the data set on Mtb [5] (day 3, average); 0.2 and 0.22 and 0.18 with Mtb [5] (day 3, individual replicates); 0.4067 in the data set on Mtb [5] (day 6, average); 0.42 (2×) and 0.38 in the data set on Mtb [5] (day 6, individual replicates). Besides, the OD600 is 0.5267 with Mtb [5] (day 9, average); 0.54 (2×) and 0.5 in the data set with Mtb [5] (day 9, individual replicates); 0.6733 in the data set on Mtb [5] (day 12, average); 0.68 (2×) and 0.66 with Mtb [5] (day 12, individual replicates). In [4] (10 μM, 8-day infection time course, vs DMSO), the “Effect on bacterial load / Mtb growth in primary murine BMDMs” value is listed as “loss of the ability to inhibit Mtb growth”. Moreover, the CFU/ml in data set [4] (day 2, average) is 489333 CFU/ml; in data set [4] (day 2, individual replicates), 446000 CFU/ml and 482000 CFU/ml and 540000 CFU/ml; in data set [4] (day 4, average) it was 960000 CFU/ml; in data set [4] (day 4, individual replicates), 1040000 CFU/ml and 1100000 CFU/ml and 740000 CFU/ml; in data set [4] (day 6, average) it was 2286667 CFU/ml; in [4] (day 6, individual replicates), 1960000 CFU/ml and 2060000 CFU/ml and 2840000 CFU/ml. Also, the CFU/ml in data set [4] (day 8, average) is 6800000 CFU/ml; in data set [4] (day 8, individual replicates) it was 6000000 CFU/ml and 5400000 CFU/ml and 9000000 CFU/ml. In addition, the “Intrabacterial accumulation in Mtb” value in the data set with Mtb CDC1551 is reported as “decreased accumulation”. Further, the “Intracellular accumulation in J774 cells” value in the data set on J774 cells is “minimal accumulation”.

Take `NC(=O)c1cnccn1` [pyrazinamide]: the “Response in C3HeB/FeJ mice” value with Mtb [6] was “heterogeneous response”. Moreover, the “Efficacy across animals in BALB/c mice” value in the data set on Mtb [7] was “uniform efficacy across animals”.

Consider `COc1nc2ccc(Br)cc2cc1[C@@H](c1ccccc1)[C@@](O)(CCN(C)C)c1cccc2ccccc12` [bedaquiline], for which, in the data set with Mtb [6], the “Response in C3HeB/FeJ mice” value is given as “heterogeneous response”. Further, the “Efficacy across animals in BALB/c mice” value in the data set with Mtb [7] is recorded as “uniform efficacy across animals”.

These data come from publication PMC8351955, “Targeting Mycobacterium tuberculosis response to environmental cues for the development of effective antitubercular drugs” (PLoS Biology, 2021).
